Assay results from ChEMBL document CHEMBL1123772, “2,4-Diamino-6,7-dimethoxyquinazolines. 2. 2-(4-Carbamoylpiperidino) derivatives as alpha 1-adrenoceptor antagonists and antihypertensive agents” (J Med Chem, 1987).
Active and inactive are the calls of the source. The rule behind the calls is not given here.

Experiments:
[1] = target: T1, Adrenergic receptor alpha-1 (Rattus norvegicus, UniProt P15823+P23944+P43140); test: In vitro binding affinity determined for alpha-1 adrenergic receptor by the displacement of [3H]- prazosin.; format: protein assay
T1 sequence (P15823 whole entry): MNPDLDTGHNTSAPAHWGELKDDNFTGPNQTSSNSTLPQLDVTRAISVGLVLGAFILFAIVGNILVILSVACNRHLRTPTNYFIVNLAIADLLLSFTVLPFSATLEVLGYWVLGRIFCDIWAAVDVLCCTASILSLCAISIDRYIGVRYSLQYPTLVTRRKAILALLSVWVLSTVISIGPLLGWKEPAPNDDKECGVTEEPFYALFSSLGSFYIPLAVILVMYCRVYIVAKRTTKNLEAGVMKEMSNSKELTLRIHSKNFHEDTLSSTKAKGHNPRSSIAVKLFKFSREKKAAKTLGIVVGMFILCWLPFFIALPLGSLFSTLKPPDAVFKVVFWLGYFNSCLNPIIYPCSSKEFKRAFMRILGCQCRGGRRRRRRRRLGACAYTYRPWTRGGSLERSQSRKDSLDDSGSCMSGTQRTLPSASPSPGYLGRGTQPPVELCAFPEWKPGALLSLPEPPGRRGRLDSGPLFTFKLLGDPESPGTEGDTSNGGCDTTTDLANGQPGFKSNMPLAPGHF
T1 sequence (P23944 whole entry): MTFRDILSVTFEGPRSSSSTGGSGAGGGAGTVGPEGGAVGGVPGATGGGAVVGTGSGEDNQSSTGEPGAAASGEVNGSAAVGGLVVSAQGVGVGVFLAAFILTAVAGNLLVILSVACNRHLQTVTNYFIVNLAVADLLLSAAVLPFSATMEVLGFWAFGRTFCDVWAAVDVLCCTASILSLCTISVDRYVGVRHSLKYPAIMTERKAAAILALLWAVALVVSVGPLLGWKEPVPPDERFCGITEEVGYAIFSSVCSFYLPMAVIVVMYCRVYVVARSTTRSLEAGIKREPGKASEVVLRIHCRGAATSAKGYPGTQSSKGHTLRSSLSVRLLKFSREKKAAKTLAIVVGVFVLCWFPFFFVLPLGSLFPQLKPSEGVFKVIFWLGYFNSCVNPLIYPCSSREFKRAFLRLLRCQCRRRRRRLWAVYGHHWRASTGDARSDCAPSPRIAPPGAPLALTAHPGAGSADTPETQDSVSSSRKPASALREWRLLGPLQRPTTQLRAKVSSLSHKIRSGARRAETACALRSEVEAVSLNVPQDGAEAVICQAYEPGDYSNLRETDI
T1 sequence (P43140 whole entry): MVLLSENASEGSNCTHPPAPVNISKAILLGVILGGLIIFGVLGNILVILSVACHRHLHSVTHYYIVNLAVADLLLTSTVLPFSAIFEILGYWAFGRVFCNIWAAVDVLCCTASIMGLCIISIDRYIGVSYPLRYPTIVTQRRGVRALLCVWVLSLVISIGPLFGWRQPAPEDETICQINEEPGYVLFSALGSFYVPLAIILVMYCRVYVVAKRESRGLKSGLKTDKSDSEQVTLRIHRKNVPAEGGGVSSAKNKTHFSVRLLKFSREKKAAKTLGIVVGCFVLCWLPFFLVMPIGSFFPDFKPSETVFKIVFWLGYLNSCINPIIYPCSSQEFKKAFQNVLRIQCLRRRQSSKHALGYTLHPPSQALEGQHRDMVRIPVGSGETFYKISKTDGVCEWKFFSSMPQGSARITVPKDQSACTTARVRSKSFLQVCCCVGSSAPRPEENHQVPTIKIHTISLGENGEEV

[2] = tested on: Adrenergic receptor alpha-1 (Oryctolagus cuniculus)
[3] = target: Adrenergic receptor alpha; test: Tested for functional alpha-antagonist activity against norepinephrine in rabbit aorta and pulmonary artery.; format: tissue-based, Oryctolagus cuniculus
[4] = tested on: Adrenergic receptor alpha-2 (Oryctolagus cuniculus); test: Competitive antagonist activity of the pre junctional alpha-2 adrenergic receptor mediated vasoconstrictor action of norepinephrine expressed as concentration producing 40% reduction in contractile response at 10e-5 M; No activity
[5] = target: Adrenergic receptor alpha-2 (Rattus norvegicus) (UniProt P22086+P19328+P22909); test: In vitro binding affinity determined for alpha-2 adrenergic receptor by the percentage displacement of [3H]- clonidine at 10e-6 M; Not active :Less than 50% activity.; format: protein assay
Rattus norvegicus = test: Antihypertensive activity determined in spontaneously hypertensive rats(SHR) by percent reduction in blood pressure at 5 mg/kg peroral administration at 4 hour; format: functional; details: route oral

Ki [1] [nM] | Displacement [5] [%] | Compound | further results
1.08 | – | COc1cc2nc(N3CCC(CC(=O)NCC4CC4)CC3)nc(N)c2cc1OC | EC40 [2]: 97 nM; pA2 [3]: 7.25; EC40 [4]: inactive
0.9 | < 50 | COc1cc2nc(N3CCC(C(=O)NCC4CC4)CC3)nc(N)c2cc1OC | –
0.42 | – | COc1cc2nc(N3CCC(C(=O)NCCOc4ccccc4)CC3)nc(N)c2cc1OC | –
0.2 | – | COc1cc2nc(N3CCC(C(=O)N(C)Cc4ccccc4)CC3)nc(N)c2cc1OC | –
0.67 | – | CCCCNC(=O)C1CCN(c2nc(N)c3cc(OC)c(OC)cc3n2)CC1 | –
0.47 | – | CCCCNC(=O)CCC1CCN(c2nc(N)c3cc(OC)c(OC)cc3n2)CC1 | –
0.63 | < 50 | COc1cc2nc(N3CCC(C(=O)NC4CCCC4)CC3)nc(N)c2cc1OC | –
1.14 | < 50 | COc1cc2nc(N3CCC(C(=O)N4CCOCC4)CC3)nc(N)c2cc1OC | –
8.25 | < 50 | CCCCNC(=O)C1CCCN(c2nc(N)c3cc(OC)c(OC)cc3n2)C1 (centres undefined) | –
1.64 | < 50 | CCNC(=O)C1CCN(c2nc(N)c3cc(OC)c(OC)cc3n2)CC1 | –
0.65 | – | CCCNC(=O)CC1CCN(c2nc(N)c3cc(OC)c(OC)cc3n2)CC1 | EC40 [2]: 18 nM; pA2 [3]: 7.42; EC40 [4]: inactive
1.73 | < 50 | COc1cc2nc(N3CCC(C(=O)NCCO)CC3)nc(N)c2cc1OC | Reduction (Rattus norvegicus): 5%
116.73 | < 50 | CCN(CC)C(=O)C1CCCN(c2nc(N)c3cc(OC)c(OC)cc3n2)C1 (centres undefined) | Reduction (Rattus norvegicus): 16%
1.13 | < 50 | COCCNC(=O)C1CCN(c2nc(N)c3cc(OC)c(OC)cc3n2)CC1 | –
1.11 | < 50 | CCN(CC)C(=O)C1CCN(c2nc(N)c3cc(OC)c(OC)cc3n2)CC1 | –
0.22 | – | COc1cc2nc(N3CCC(C(=O)NCc4ccccc4)CC3)nc(N)c2cc1OC | –
1.46 | – | COc1cc2nc(N3CCC(C(N)=O)CC3)nc(N)c2cc1OC | –
0.1 | – | COc1cc2nc(N3CCC(C(=O)NCCc4ccccc4)CC3)nc(N)c2cc1OC | –
0.79 | – | CCCCNC(=O)COC1CCN(c2nc(N)c3cc(OC)c(OC)cc3n2)CC1 | –
0.47 | < 50 | COc1cc2nc(N3CCC(C(=O)Nc4ccccc4)CC3)nc(N)c2cc1OC | –
1.4 | – | CCCCNC(=O)CC1CCN(c2nc(N)c3cc(OC)c(OC)cc3n2)CC1 | –
